Experimental data taken from patent US9226503B2, “Composition and method for attraction of emerald ash borer Agrilus planipennis fairmaire (coleoptera: buprestidae)” (Her Majesty the Queen in Right of Canada, as represented by …, priority 2011, dated 2016).

Experiments:
[1] = tested on: A. planipennis; assay: Field trapping experiment 1 (2008), purple prism traps, Ontario; type: in vivo, Agrilus planipennis
Description: Field trapping. Three trapping experiments were carried out in green ash plantations (F. pennsylvanica Marsch) with low-to-moderate A. planipennis populations about 40 km southeast of Sarnia, Ontario (42° 58′ 0 N, 82° 24′ 0 W) in 2008, 2009 and 2010. Trees at these sites were generally healthy in appearance with low or no signs of decline, and only a small number of trees had obvious signs/symptoms of infestation by A. planipennis. In Ontario sites, trees were 20-25 years old, 4-6 m tall, 10-15 cm in diameter, and spaced about 2 m apart within a row and 2.5 m between rows. In 2010, the trapping experiment was replicated at four sites in Michigan, USA, in addition to the sites in Ontario. […] Traps were checked every 2 weeks and A. planipennis were collected, counted and sexed.
Experiment 1, conducted in Ontario in 2008, was designed to test for attractiveness of (3Z)-lactone (Bartelt et al. 2007), alone and in combination with two types of host volatiles: bark sesquiterpenes (Crook et al. 2008) and a binary blend of green leaf volatiles ((3Z)-hexenol and (2E)-hexenol) (Poland et al. 2005, de Groot et al. 2008). […] We selected Phoebe oil because it contained two additional sesquiterpenes that had been detected in ash trees and appeared to be more attractive than Manuka oil (Crook et al. 2008) and the (3Z)-hexenol and (2E)-hexenol combination based on results from de Groot et al. (2008). […]

[2] = tested on: A. planipennis; assay: Field trapping 2011 experiment 2: (3Z)-lactone, (3Z)-hexenol and trap height factorial, dark green traps; type: in vivo, Agrilus planipennis; conditions: 2×2×2 factorial, lactone 3 mg/lure
Description: Two trapping experiments were conducted in green and white ash plantations (F. pennsylvanica Marsch and F. americana L.) located 40-60 km southeast of Sarnia, Ontario in 2011. Trees were 20-30 yr old, 5-8 m tall, 12-18 cm in diameter, and spaced 2-3 m apart within and between rows. Five sites were used in total: four were green ash and the fifth was a white ash plantation. Trees at four of the sites generally appeared healthy with few or no signs of decline and only a few with obvious signs and symptoms of infestation by A. planipennis. At the fifth site, obvious crown decline and signs of infestation were apparent on about one-quarter of trees.
Green prism sticky traps (0.30 cm×35.00 cm×58.75 cm) (Synergy Semiochemicals Corp., Burnaby, BC) were used in all field trials, deployed using modified umbrella rig spreaders (Zing Products, Westport, Mass.). Traps were spaced 20-25 m apart and lure treatments replicated in randomized complete block designs. Traps were deployed either using ropes tied between two trees or using a single line over a canopy branch, as described further below for each specific experimental objective. Traps were typically checked every 2 wk and A. planipennis were collected, counted, and sexed.
Experiment 2 was a 2×2×2 factorial experiment designed to test the effects of (3Z)-lactone, (3Z)-hexenol, trap height, and their interactions on numbers of A. planipennis captured on sticky, dark green (540-nm wavelength) (Francese et al 2010a) prism traps. Traps were baited with either (3Z)-lactone, (3Z)-hexenol, (3Z)-lactone+(3Z)-hexenol, or neither compound (unbaited control) and all treatments were deployed both below the canopy or in the mid-canopy. Traps placed below the canopy were suspended from ropes tied between two trees so the trap was 1-1.5 m from either tree and the top of the trap was 1.5-2 m above the ground. Traps in the canopy were deployed from a single line looped over a mid-canopy branch such that traps were 1-1.5 m from the main stem and their tops were 6 m above ground. (3Z)-Lactone was loaded onto rubber septa lures at a dosage of 3 mg/lure. Release rates of the (3Z)-lactone and (3Z)-hexenol were 60-70 μg/day and 50-100 mg/day, respectively at 25° C. Traps were in the field from 8 June-5 August, with one block at one site (Nauvoo Ranch), 5 blocks at a second site (LaSalle, the one white ash plantation), and 4 blocks at a third site (Brook Line). The 3 mg (3Z)-lactone lures were estimated to maintain adequate release rates for a minimum of three weeks and thus were replaced after three weeks; (3Z)-hexenol lures were not replaced during the experiment.
Numbers of A. planipennis captured in the trapping experiments were subjected to ANOVA separately for males and females. […]

O=C1C/C=C\CCCCCCCCO1 [(3Z)-lactone, (3Z)-dodecen-12-olide]
trap captures compared to unbaited controls [1]: not significantly attractive | mean capture of males per trap, effect of presence of the lure component [2]: significantly and positively affected | mean catch of females, effect of the lure component [2]: not
